Laboratory results from PMC3827627 (ACS chemical biology, 2013).

Experiments:
PKA-RIα holoenzyme = PKA-RIα holoenzyme (Bos taurus, UniProt P00514); assay type: biochemical; conditions: for EC50: read-out: RIα EC50, LiReC assay, 6 nM PKA holoenzyme, 3 nM TR-IP20
RIIβ-S112A holoenzyme = RIIβ-S112A holoenzyme (Rattus norvegicus, UniProt P12369, S112A); assay type: biochemical; conditions: LiReC assay; for EC50: read-out: RIIβ EC50, RIIβ-S112A holoenzyme, 6 nM PKA holoenzyme, 3 nM TR-IP20
RIIβ-S112A holoenzyme, sequence (P12369 108-402 S112A): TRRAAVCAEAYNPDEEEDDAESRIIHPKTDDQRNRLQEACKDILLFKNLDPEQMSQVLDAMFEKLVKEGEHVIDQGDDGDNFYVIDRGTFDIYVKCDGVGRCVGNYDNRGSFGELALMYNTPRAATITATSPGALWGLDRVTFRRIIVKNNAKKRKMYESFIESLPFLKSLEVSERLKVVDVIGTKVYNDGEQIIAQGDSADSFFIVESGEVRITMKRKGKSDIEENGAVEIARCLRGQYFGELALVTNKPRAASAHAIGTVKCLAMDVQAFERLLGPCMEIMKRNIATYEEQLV

PKA-RIα holoenzyme, sequence (P00514 92-380): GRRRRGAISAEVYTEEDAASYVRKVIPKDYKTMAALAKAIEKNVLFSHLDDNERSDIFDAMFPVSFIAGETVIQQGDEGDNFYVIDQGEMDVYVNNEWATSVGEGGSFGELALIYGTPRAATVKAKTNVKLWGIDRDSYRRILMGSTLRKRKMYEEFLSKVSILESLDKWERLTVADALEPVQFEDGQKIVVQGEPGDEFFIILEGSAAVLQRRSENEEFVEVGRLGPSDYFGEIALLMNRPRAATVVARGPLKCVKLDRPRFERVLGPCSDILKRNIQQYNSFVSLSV

EC50 (PKA-RIα holoenzyme) [nM] | EC50 (RIIβ-S112A holoenzyme) [nM] | fold increase in EC50 relative to cAMP (PKA-RIα holoenzyme; RIα holoenzyme, HE33 vs cAMP) [fold] | activation of RIIβ holoenzymes (in words) (RIIβ-S112A holoenzyme) | Molecule
42 | 45 | – | – | Nc1nc(Cl)nc2c1ncn2[C@@H]1O[C@@H]2COP(=O)(O)OC2[C@@H]1O (stereo partly shown) [2-Cl cAMP]
414 | 45 | 10 | – | CCCN(CCC)c1ncnc2c1ncn2[C@@H]1O[C@@H]2COP(=O)(O)O[C@H]2[C@H]1O [HE33]
140 | 39 | – | potent RIIβ activators | CCCC(=O)Nc1ncnc2c1ncn2[C@@H]1O[C@@H]2COP(=O)(O)O[C@H]2[C@H]1O [6-MB cAMP]
289 | 59 | – | – | CC(C)(C)NC(=O)Nc1ncnc2c1ncn2[C@@H]1O[C@@H]2COP(=O)(O)O[C@H]2[C@H]1O [6-MBC cAMP]
33 | 149 | – | – | Nc1ncnc2c1nc(Sc1ccc(Cl)cc1)n2[C@@H]1O[C@@H]2COP(=O)(O)O[C@H]2[C@H]1O [8-CPT cAMP]
358 | 1150 | – | – | CCCCCCNc1nc2c(N)ncnc2n1[C@@H]1O[C@@H]2COP(=O)(O)OC2[C@@H]1O (stereo partly shown) [8-HA cAMP]
58 | 275 | – | – | Nc1ncnc2c1nc(Cl)n2[C@@H]1O[C@@H]2COP(=O)(O)O[C@H]2[C@H]1O [8-Cl cAMP]
92 | 20 | – | – | O=P1(O)OC[C@H]2O[C@@H](n3cnc4c(Nc5ccccc5)ncnc43)[C@@H](O)C2O1 (stereo partly shown) [6-Phe cAMP]
81 | 184 | – | – | Nc1ncnc2c1nc(Br)n2[C@@H]1O[C@@H]2COP(=O)(O)O[C@H]2[C@H]1O [8-Br cAMP]
15000 | 5080 | – | – | Nc1nc2c(ncn2[C@@H]2O[C@@H]3COP(=O)(O)O[C@H]3[C@H]2O)c(=O)[nH]1 [cGMP]
102 | 223 | – | – | CNc1nc2c(N)ncnc2n1[C@@H]1O[C@@H]2COP(=O)(O)O[C@H]2[C@H]1O [8-MA cAMP]
1020 | 3950 | – | – | Nc1ncnc2c1nc(N1CCCCC1)n2[C@@H]1O[C@@H]2COP(=O)(O)O[C@H]2[C@H]1O [8-PIP cAMP]
5670 | – | – | – | 2-OMe cAMP
116 | 197 | – | – | NCCCCCCNc1nc2c(N)ncnc2n1[C@@H]1O[C@@H]2COP(=O)(O)O[C@H]2[C@H]1O [8-AHA cAMP]
170 | 35 | – | – | O=C(Nc1ncnc2c1ncn2[C@@H]1O[C@@H]2COP(=O)(O)OC2C1O)c1ccccc1 (stereo in doubt) [6-Bnz cAMP]

Molecule | EC50 (PKA-RIα holoenzyme) [nM] | EC50 (RIIβ-S112A holoenzyme) [nM] | fold increase in EC50 relative to cAMP (PKA-RIα holoenzyme; RIα holoenzyme, HE33 vs cAMP) [fold] | activation of RIIβ holoenzymes (in words) (RIIβ-S112A holoenzyme)
O=P1(S)OCC2OC(n3cnc4cc(Cl)c(Cl)cc43)C(O)C2O1 (stereo not shown) [Sp-5,6-DCl BIMPS] | 344 | 83 | – | –
Nc1ncnc2c1nc(N1CCCCC1)n2[C@@H]1O[C@@H]2COP(O)(=S)O[C@@H]2C1O (stereo partly shown) [Sp-8-PIP cAMP] | 5050 | 2960 | – | –
Nc1ncnc2c1nc(Br)n2[C@@H]1O[C@@H]2COP(O)(=S)O[C@H]2[C@H]1O (stereo partly shown) [Sp-8-B cAMP] | 1360 | 435 | – | –
Nc1ncnc2c1ncn2[C@@H]1O[C@@H]2COP(O)(=S)O[C@H]2[C@H]1O (stereo partly shown) [Sp cAMP] | 1590 | 2270 | – | –
Nc1ncnc2c1nc(Sc1ccc(Cl)cc1)n2[C@@H]1O[C@@H]2CO[P@](=O)(S)O[C@H]2[C@H]1O [Sp-8-CPT cAMP] | 342 | 96 | – | –
O=[P@]1(S)OC[C@H]2O[C@@H](n3cnc4cc(Cl)c(Cl)cc43)[C@H](O)[C@@H]2O1 [5,6 DCl BIMPS] | 270 | 129 | – | –
